Measurements as given in patent US20240246992A1, “MACROCYCLIC LRRK2 KINASE INHIBITORS” (LES LABORATOIRES SERVIER, priority 2021, published 2024).

Molecular target: human recombinant LRRK2 protein (Homo sapiens, UniProt Q5S007)
Test: LRRK2 kinase activity assay (ADP-Glo, LRRKtide peptide)
Type: biochemical
Details: human recombinant LRRK2 wt, LRRKtide peptide and ATP, 1 h at 37° C.
In short: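 Human recombinant LRRK2 reacted with LRRKtide peptide and ATP for 1 h at 37 °C in the presence of compound. ADP formed measured by ADP-Glo luminescence; IC50 fitted from 10 concentrations run in duplicate.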

Sequence of human recombinant LRRK2 protein (Q5S007 whole entry): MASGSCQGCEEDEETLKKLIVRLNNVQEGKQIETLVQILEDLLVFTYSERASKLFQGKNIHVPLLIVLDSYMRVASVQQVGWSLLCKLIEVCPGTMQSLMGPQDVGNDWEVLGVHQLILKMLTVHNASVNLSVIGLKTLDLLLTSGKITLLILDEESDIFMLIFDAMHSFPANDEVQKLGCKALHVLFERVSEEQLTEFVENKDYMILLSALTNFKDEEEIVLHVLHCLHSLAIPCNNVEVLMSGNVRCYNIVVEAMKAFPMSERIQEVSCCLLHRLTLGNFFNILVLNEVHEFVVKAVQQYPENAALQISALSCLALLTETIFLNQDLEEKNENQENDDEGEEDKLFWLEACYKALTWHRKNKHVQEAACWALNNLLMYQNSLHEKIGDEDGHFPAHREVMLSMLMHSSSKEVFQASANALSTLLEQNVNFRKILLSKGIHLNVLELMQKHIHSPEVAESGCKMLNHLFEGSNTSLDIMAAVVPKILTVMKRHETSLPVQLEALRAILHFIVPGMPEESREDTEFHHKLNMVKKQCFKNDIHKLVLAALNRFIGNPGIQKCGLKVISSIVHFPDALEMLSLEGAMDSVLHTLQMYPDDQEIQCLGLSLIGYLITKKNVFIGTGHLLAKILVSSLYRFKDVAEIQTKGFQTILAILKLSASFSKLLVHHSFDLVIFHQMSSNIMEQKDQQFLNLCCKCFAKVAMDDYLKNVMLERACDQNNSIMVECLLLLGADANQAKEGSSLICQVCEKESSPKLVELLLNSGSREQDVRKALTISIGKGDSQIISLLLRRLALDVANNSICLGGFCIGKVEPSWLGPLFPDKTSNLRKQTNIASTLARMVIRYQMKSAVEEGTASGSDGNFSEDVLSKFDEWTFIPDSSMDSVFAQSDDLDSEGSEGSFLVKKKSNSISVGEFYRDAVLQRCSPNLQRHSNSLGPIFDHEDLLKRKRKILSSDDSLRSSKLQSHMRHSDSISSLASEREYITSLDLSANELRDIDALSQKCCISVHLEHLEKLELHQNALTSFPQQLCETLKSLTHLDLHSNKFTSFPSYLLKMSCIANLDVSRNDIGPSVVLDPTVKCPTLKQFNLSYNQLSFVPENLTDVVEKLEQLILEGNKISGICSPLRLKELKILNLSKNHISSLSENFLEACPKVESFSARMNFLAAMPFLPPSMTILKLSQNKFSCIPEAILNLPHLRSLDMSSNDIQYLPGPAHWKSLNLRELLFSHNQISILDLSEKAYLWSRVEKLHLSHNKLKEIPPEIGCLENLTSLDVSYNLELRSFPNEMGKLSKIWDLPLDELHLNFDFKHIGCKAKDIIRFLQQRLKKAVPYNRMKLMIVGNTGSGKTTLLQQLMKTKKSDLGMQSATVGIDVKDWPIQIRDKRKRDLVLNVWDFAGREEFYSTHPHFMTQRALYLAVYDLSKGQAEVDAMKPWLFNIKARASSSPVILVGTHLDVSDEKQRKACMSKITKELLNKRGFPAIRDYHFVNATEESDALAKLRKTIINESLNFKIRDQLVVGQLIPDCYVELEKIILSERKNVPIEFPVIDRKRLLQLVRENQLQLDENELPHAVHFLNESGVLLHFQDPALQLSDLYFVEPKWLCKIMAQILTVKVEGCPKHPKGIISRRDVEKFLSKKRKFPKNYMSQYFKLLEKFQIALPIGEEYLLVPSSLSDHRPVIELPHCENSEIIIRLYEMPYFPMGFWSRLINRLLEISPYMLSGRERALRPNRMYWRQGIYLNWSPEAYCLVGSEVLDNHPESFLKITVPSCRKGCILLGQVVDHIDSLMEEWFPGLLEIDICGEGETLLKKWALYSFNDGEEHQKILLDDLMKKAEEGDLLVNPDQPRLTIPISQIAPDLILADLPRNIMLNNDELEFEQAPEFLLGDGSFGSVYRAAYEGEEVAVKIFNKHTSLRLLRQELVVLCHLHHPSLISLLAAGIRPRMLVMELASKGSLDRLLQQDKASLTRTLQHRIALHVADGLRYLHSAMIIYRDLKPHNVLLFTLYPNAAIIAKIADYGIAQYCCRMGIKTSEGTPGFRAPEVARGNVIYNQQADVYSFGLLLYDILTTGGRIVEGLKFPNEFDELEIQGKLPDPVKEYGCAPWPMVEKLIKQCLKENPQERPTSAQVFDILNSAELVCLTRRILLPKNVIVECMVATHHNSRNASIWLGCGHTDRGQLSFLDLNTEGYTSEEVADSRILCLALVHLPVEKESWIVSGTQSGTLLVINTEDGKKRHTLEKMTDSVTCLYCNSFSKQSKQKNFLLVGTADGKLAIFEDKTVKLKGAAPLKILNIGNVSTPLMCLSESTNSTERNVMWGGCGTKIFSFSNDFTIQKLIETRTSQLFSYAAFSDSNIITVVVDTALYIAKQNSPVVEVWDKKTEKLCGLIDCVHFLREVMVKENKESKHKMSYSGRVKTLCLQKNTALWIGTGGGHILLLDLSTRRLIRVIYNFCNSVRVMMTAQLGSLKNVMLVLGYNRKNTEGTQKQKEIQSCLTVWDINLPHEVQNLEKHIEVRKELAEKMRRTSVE

SMILES	IC50 [nM]
C[C@@H]1COCCCCn2ncc(n2)-c2n[nH]c3ccc(cc23)O1 [Example 130, (12R)-12-methyl-10,13-dioxa-4,5,18,19,22-pentaazatetracyclo[12.5.2.1^2,5.0^17,20] docosa-1(19),2(22),3,14(21),15,17(20)-hexaene]	< 100
C[C@@H]1CCOCCOCCn2cc(cn2)-c2n[nH]c3ccc(cc23)O1 [Example 131, (14R)-14-methyl-8,11,15-trioxa-4,5,20,21-tetraazatetracyclo[14.5.2.1^2,5.0^19,22]tetracosa-1(21),2(24),3,16(23),17,19(22)-hexaene]	< 10
C[C@@H]1C[C@H](C)OCCCOc2ccc3[nH]nc(c3c2)-c2cnn1c2 [Example 132, (6R,8S)-6,8-dimethyl-9,13-dioxa-4,5,18,19-tetraazatetracyclo[12.5.2.1^2,5.0^17,20]docosa-1(19),2(22),3,14(21),15,17(20)-hexaene]	< 100
C[C@@H]1CCOCCOCCn2ncc(n2)-c2n[nH]c3ccc(cc23)O1 [Example 133, (14R)-14-methyl-8,11,15-trioxa-4,5,20,21,24-pentaazatetracyclo[14.5.2.1^2,5.0^19,22]tetracosa-1(21),2(24),3,16(23),17,19(22)-hexaene]	< 100
Fc1ccc2cc1OCCNCCCOc1ccc3[nH]nc-2c3c1 [Example 139, 5-fluoro-7,14-dioxa-10,19,20-triazatetracyclo[13.5.2.1^2,6.0^18,21]tricosa-1(20),2,4,6(23),15,17,21-heptaene]	< 10
Cc1ccc2cc1OCCNCCCOc1ccc3[nH]nc-2c3c1 [Example 141, 5-methyl-7,14-dioxa-10,19,20-triazatetracyclo[13.5.2.1^2,6.0^18,21] tricosa-1(20),2,4,6(23),15,17,21-heptaene]	< 10
c1cc2[nH]nc3c2cc1OCCCNCCOc1cc-3cc(C2CCOCC2)c1 [Example 147, 4-(oxan-4-yl)-7,14-dioxa-10,19,20-triazatetracyclo[13.5.2.1^2,6.0^18,21]tricosa-1(20),2(23),3,5,15,17,21-heptaene]	< 10
c1cc2[nH]nc3c2cc1OCCCNCCOc1cc-3cc(C2CCCOC2)c1 (stereo not shown) [Example 149, 4-(oxan-3-yl)-7,14-dioxa-10,19,20-triazatetracyclo[13.5.2.1^2,6.0^18,21]tricosa-1(20),2(23),3,5,15,17,21-heptaene]	< 10
O=C1COc2cccc(c2)-c2n[nH]c3ccc(cc23)OCCC(CF)N1 (stereo not shown) [Example 154, 11-(fluoromethyl)-7,14-dioxa-10,19,20-triazatetracyclo [13.5.2.1^2,6.0^18,21]tricosa-1(20),2,4,6(23),15,17,21-heptaen-9-one]	< 100
FCC1CCOc2ccc3[nH]nc(c3c2)-c2cccc(c2)OCCN1 (stereo not shown) [Example 155, 11-(fluoromethyl)-7,14-dioxa-10,19,20-triazatetracyclo [13.5.2.1^2,6.0^18,21]tricosa-1(20),2,4,6(23),15,17,21-heptaene]	< 100
c1cc2[nH]nc3c2cc1OCCCNCC1(CC1)Oc1cncc-3c1 [Example 157, 7′,14′-dioxa-4′,10′,19′,20′-tetraazaspiro[cyclopropane-1,8′-tetracyclo[13.5.2.1^2,6.0^18,21]tricosane]-1′(20′),2′(23′),3′,5′,15′,17′,21′-heptaene]	< 10
CC1CCNCCOc2cncc(c2)-c2n[nH]c3ccc(cc23)O1 (stereo not shown) [Example 159, 13-methyl-7,14-dioxa-4,10,19,20-tetraazatetracyclo[13.5.2.1^2,6.0^18,21]tricosa-1(20),2,4,6(23),15,17,21-heptaene]	< 10
CC1Oc2cncc(c2)-c2n[nH]c3ccc(cc23)OCCCN(C)C1=O (stereo not shown) [Example 160, 8,10-dimethyl-7,14-dioxa-4,10,19,20-tetraazatetracyclo [13.5.2.1^2,6.0^18,21]tricosa-1(20),2,4,6(23),15,17,21-heptaen-9-one]	< 100
CC1CN(C)CCCOc2ccc3[nH]nc(c3c2)-c2cncc(c2)O1 (stereo not shown) [Example 161, 8,10-dimethyl-7,14-dioxa-4,10,19,20-tetraazatetracyclo [13.5.2.1^2,6.0^18,21]tricosa-1(20),2,4,6(23),15,17,21-heptaene]	< 100
C[C@@H]1CCNCCOc2cncc(c2)-c2n[nH]c3ccc(cc23)O1 [Example 163, (13R)-13-methyl-7,14-dioxa-4,10,19,20-tetraazatetracyclo[13.5.2.1^2,6.0^18,21]tricosa-1(20),2,4,6(23),15(22),16,18(21)-heptaene]	< 10
O=C1NCCCOc2ccc3[nH]nc(c3c2)-c2cccc(c2)[C@H]2C[C@H]12 [Example 164, (7S,9S)-15-oxa-11,20,21-triazapentacyclo[14.5.2.1^2,6.0^7,9.0^19,22] tetracosa-1(21),2(24),3,5,16(23),17,19(22)-heptaen-10-one]	< 100
c1cc2cc(c1)[C@H]1C[C@@H]1CNCCCOc1ccc3[nH]nc-2c3c1 [Example 165, (7S,9S)-15-oxa-11,20,21-triazapentacyclo[14.5.2.1^2,6.0^7,9.0^19,22]tetracosa-1(21),2(24),3,5,16(23),17,19(22)-heptaene]	< 1000
c1cc2cc(c1)-c1n[nH]c3ccc(cc13)OCCCNCCC2 [Example 167, 14-oxa-10,19,20-triazatetracyclo[13.5.2.1^2,6.0^18,21]tricosa-1(20),2(23),3,5,15(22),16,18(21)-heptaene]	< 10

Now from value to compound:

IC50 [nM]	SMILES
< 100	O=C1COc2cccc(c2)-c2n[nH]c3ccc(cc23)OCCCN1 [Example 134, 7,14-dioxa-10,19,20-triazatetracyclo[13.5.2.1^2,6.0^18,21]tricosa-1(20),2(23), 3,5,15(22),16,18(21)-heptaen-9-one]
< 10	c1cc2cc(c1)-c1n[nH]c3ccc(cc13)OCCCNCCO2 [Example 135, 7,14-dioxa-10,19,20-triazatetracyclo[13.5.2.1^2,6.0^18,21]tricosa-1(20),2(23),3,5,15(22),16,18(21)-heptaene]
< 10	O=C1COc2cncc(c2)-c2n[nH]c3ccc(cc23)OCCCN1 [Example 136, 7,14-dioxa-4,10,19,20-tetraazatetracyclo[13.5.2.1^2,6.0^18,21]tricosa-1(20),2,4,6(23),15,17,21-heptaen-9-one]
< 10	c1cc2[nH]nc3c2cc1OCCCNCCOc1cncc-3c1 [Example 137, 7,14-dioxa-4,10,19,20-tetraazatetracyclo[13.5.2.1^2,6.0^18,21]tricosa-1(20),2,4,6(23),15,17,21-heptaene]
< 100	O=C1COc2cc(ccc2F)-c2n[nH]c3ccc(cc23)OCCCN1 [Example 138, 5-fluoro-7,14-dioxa-10,19,20-triazatetracyclo[13.5.2.1^2,6.0^18,21]tricosa-1(20),2,4,6(23),15,17,21-heptaen-9-one]
< 10	Cc1ccc2cc1OCC(=O)NCCCOc1ccc3[nH]nc-2c3c1 [Example 140, 5-methyl-7,14-dioxa-10,19,20-triazatetracyclo[13.5.2.1^2,6.0^18,21] tricosa-1(20),2,4,6(23),15,17,21-heptaen-9-one]
< 10	O=C1COc2cc(Cl)cc(c2)-c2n[nH]c3ccc(cc23)OCCCN1 [Example 142, 4-chloro-7,14-dioxa-10,19,20-triazatetracyclo[13.5.2.1^2,6.0^18,21]tricosa-1(20),2,4,6(23),15,17,21-heptaen-9-one]
< 10	Clc1cc2cc(c1)-c1n[nH]c3ccc(cc13)OCCCNCCO2 [Example 143, 4-chloro-7,14-dioxa-10,19,20-triazatetracyclo[13.5.2.1^2,6.0^18,21]tricosa-1(20),2,4,6(23),15,17,21-heptaene]
< 10	Cc1cc2cc(c1)-c1n[nH]c3ccc(cc13)OCCCNC(=O)CO2 [Example 144, 4-methyl-7,14-dioxa-10,19,20-triazatetracyclo[13.5.2.1^2,6.0^18,21]tricosa-1(20),2(23),3,5,15,17,21-heptaen-9-one]
< 10	Cc1cc2cc(c1)-c1n[nH]c3ccc(cc13)OCCCNCCO2 [Example 145, 4-methyl-7,14-dioxa-10,19,20-triazatetracyclo[13.5.2.1^2,6.0^18,21]tricosa-1(20),2(23),3,5,15,17,21-heptaene]
< 10	O=C1COc2cc(cc(C3CCOCC3)c2)-c2n[nH]c3ccc(cc23)OCCCN1 [Example 146, 4-(oxan-4-yl)-7,14-dioxa-10,19,20-triazatetracyclo[13.5.2.1^2,6.0^18,21]tricosa-1(20),2(23),3,5,15,17,21-heptaen-9-one]
< 10	O=C1COc2cc(cc(C3CCCOC3)c2)-c2n[nH]c3ccc(cc23)OCCCN1 (stereo not shown) [Example 148, 4-(oxan-3-yl)-7,14-dioxa-10,19,20-triazatetracyclo[13.5.2.1^2,6.0^18,21]tricosa-1(20),2(23),3,5,15,17,21-heptaen-9-one]
< 100	O=C1NCCCOc2ccc3[nH]nc(c3c2)-c2cncc(c2)OC12CC2 [Example 156, 7′,14′-dioxa-4′,10′,19′,20′-tetraazaspiro[cyclopropane-1,8′-tetracyclo[13.5.2.1^2,6.0^18,21]tricosane]-1′(20′),2′(23′),3′,5′,15′,17′,21′-heptaen-9′-one]
< 100	CC1CCNC(=O)COc2cncc(c2)-c2n[nH]c3ccc(cc23)O1 (stereo not shown) [Example 158, 13-methyl-7,14-dioxa-4,10,19,20-tetraazatetracyclo[13.5.2.1^2,6.0^18,21]tricosa-1(20),2,4,6(23),15,17,21-heptaen-9-one]
< 100	C[C@@H]1CCNC(=O)COc2cncc(c2)-c2n[nH]c3ccc(cc23)O1 [Example 162, (13R)-13-methyl-7,14-dioxa-4,10,19,20-tetraazatetracyclo[13.5.2.1^2,6.0^18,21]tricosa-1(20),2,4,6(23),15(22),16,18(21)-heptaen-9-one]
< 10	O=C1CCc2cccc(c2)-c2n[nH]c3ccc(cc23)OCCCN1 [Example 166, 14-oxa-10,19,20-triazatetracyclo[13.5.2.1^2,6.0^18,21]tricosa-1(20),2(23),3,5,15(22),16,18(21)-heptaen-9-one]
